Laboratory results as given in publication PMC12440824, “Chimeric deubiquitinase engineering reveals structural basis for specific inhibition of the mitophagy regulator USP30” (Nature Structural & Molecular Biology, 2025).
Where “and” joins values, the source holds several entries; their conditions need not be identical. Identical values can stand only once.

Assays:
USP30^ch3 F157A = USP30^ch3 F157A (Homo sapiens, UniProt Q70CQ3, F157A, form not given); experiment: Thermal shift assay, USP30 ch3 F157A; type: binding; details: 20 μM inhibitor
Method: (§1) The thermal stability of USP30 constructs and effects of either inhibitor or Ub-PA binding were determined by thermal shift assays. Inhibitor, Ub-PA and SYPRO orange dye (Sigma, 5,000× stock in DMSO) solutions were prepared in 1× PBS, 4 mM DTT. Inhibitor/Ub-PA was prediluted to 100 µM, and SYPRO orange dye was prediluted to 50× (from the commercial stock). Mixtures of protein, inhibitor/Ub-PA and SYPRO were prepared with inhibitor/Ub-PA at a final concentration of 20 μM, SYPRO at a final concentration of 4× and protein at a final concentration of 2 μM for c1, 4 μM for ch1, ch4 and c2 and 3 μM for ch2 and ch3. Samples were added in triplicate to a white 96-well PCR plate (Bio-Rad). Fluorescence intensity was monitored (excitation, 450–490 nm; emission, 560–580 nm) at a gradient of 20–90 °C (increment of 0.3 °C, hold for 5 s before read) on a real-time PCR system (Bio-Rad).

USP30^ch3 F453Y = USP30^ch3 F453Y (Homo sapiens, UniProt Q70CQ3, F453Y, form not given); experiment: Thermal shift assay, USP30 ch3 F453Y; type: binding; details: 20 μM inhibitor
Method: as §1

USP30^ch2 = USP30^ch2 (Homo sapiens, UniProt Q70CQ3); experiment: Thermal shift assay, USP30 ch2; type: binding; details: 20 μM inhibitor
Method: as §1

USP30^c1 = target: T1, USP30^c1 (Homo sapiens, UniProt Q70CQ3, DEL179-208/DEL211-214/DEL358-428/F348D/I353E/M350S/N216S/S215G); experiment: Ub–RhoG cleavage enzyme inhibition assay, USP30 construct 1; type: biochemical; details: for IC50: Ub–RhoG cleavage, 1.5 h pre-incubation, mean ± s.e.m. from curve fitting; for USP30c1 activity: mean n=3
T1 sequence (Q70CQ3 with tags, fused parts or gaps DEL179-208/DEL211-214/S215G/N216S/F348D/M350S/I353E/DEL358-428): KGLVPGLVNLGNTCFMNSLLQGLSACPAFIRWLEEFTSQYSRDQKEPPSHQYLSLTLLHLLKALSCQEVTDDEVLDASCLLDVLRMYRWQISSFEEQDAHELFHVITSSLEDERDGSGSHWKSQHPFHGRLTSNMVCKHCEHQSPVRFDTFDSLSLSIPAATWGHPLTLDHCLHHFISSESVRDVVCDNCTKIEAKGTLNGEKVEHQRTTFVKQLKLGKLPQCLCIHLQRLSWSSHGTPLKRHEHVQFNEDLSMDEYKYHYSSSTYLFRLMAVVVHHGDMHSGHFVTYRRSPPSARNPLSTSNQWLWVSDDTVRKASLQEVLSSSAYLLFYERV
Method: Enzyme kinetics were performed in black, low-volume, non-binding-surface 384-well plates. […] Next, 10 µl of 2× enzyme solution was added in triplicate to the plate. The reaction was started by adding 10 µl of 2× substrate solution. […] Inhibitor solution (4×) was added to 4× enzyme solution to create a 2× enzyme–inhibitor mixture. Next, 10 µl of this 2× enzyme–inhibitor mixture was then added to the plate in triplicate, and the plate was incubated at room temperature for 90 min. The reaction was started by adding 10 µl of 2× Ub–RhoG substrate. […] Data were analyzed with GraphPad Prism.

USP30^ch4 = experiment: Thermal shift assay, USP30 ch4; type: binding, human; details: 20 μM inhibitor; for ΔTm, USP30^ch4: replicates or average
Method: as §1

[1] = test system: T2, Flag-tagged, full-length USP30 (wild type) in HEK293 cells; experiment: Cellular ubiquitin probe competition, overexpressed Flag-tagged full-length USP30 wild type; type: cell-based, human; details: 2 µM compound, 2 h; HA-Ub-PA probe in lysate
T2 construct: C-terminally Flag-tagged human USP30 (1–517) was used for transient transfection; expressed in transfected cells; host or cells: HEK293, transient transfection of a pOPINE vector
Method: HEK293 cells (8 × 10^5 cells per well) were seeded in six-well plates and cultivated for 24 h. PEI transfecting reagent (Polysciences) was pre-incubated for 10 min with the vectors in 200 μl Opti-MEM medium (2 µg DNA per well). Cells were transfected and incubated for 48 h. Following the treatment with either compounds or DMSO in fresh medium for an additional 2 h, cells were processed as described below. Cells were seeded at 8 × 10^5 cells per well and grown for 48 h. […] The medium was aspirated, and cells were washed once with ice-cold PBS. Cells were collected by scraping in lysis buffer (150 mM NaCl, 250 mM sucrose, 50 mM Tris, pH 8.0, 5 mM TCEP) supplemented with EDTA-free complete protease inhibitor cocktail and benzonase. Suspended cells were homogenized by 12 bursts of a microtip probe sonicator (Branson Sonifier 450) at 10% amplitude with pulses of 1 s on ice. Remaining cell debris was separated by centrifugation (20,817g, 5 min, 4 °C). […] After incubation for 10 min at room temperature, reactions were quenched by the addition of 4× reducing LDS sample buffer. Samples were resolved by SDS–PAGE and further analyzed via western blot. Using a Trans-Blot Turbo system (Bio-Rad, 1.0 A, 25 V, 30 min), proteins were blotted onto a nitrocellulose membrane. […]

[2] = pH 8, read-out: USP30c1 activity

Sequence of USP30^ch2 (Q70CQ3 64-502): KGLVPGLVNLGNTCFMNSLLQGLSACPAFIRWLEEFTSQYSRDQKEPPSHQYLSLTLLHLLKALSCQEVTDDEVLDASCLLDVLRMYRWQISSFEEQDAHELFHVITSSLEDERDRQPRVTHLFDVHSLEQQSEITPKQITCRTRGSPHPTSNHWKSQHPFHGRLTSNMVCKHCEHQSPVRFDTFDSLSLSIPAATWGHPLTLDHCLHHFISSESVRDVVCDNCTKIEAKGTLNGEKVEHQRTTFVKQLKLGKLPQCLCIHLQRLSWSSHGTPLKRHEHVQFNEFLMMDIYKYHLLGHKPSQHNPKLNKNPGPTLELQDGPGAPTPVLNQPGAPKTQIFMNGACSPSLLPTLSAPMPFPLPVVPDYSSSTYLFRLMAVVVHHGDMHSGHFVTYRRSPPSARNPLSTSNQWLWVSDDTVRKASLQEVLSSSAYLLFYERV
Sequence of USP30^ch2 (P54578 248-318 partner): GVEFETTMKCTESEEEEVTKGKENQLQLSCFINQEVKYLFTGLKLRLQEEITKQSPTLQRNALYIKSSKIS
Sequence of USP30^ch3 F453Y (Q70CQ3 64-502 F453Y, form open): as the sequence (Q70CQ3 64-502) above, with F390Y counted along it
Sequence of USP30^ch3 F453Y (P54578 248-318 partner, form open): as the sequence (P54578 248-318 partner) above
Sequence of USP30^ch3 F453Y (Q9P2H5 821-846 partner, form open): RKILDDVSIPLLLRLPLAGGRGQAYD
Sequence of USP30^ch3 F157A (Q70CQ3 64-502 F157A, form open): as the sequence (Q70CQ3 64-502) above, with F94A counted along it
Sequence of USP30^ch3 F157A (P54578 248-318 partner, form open): as the sequence (P54578 248-318 partner) above

In the case of CC(C)(CO)NS(=O)(=O)c1ccc(NC(=O)[C@H](Cc2ccccc2)NC(=O)c2ccc(F)cc2)cc1 [NK036], the “Tm in presence of compound, USP30^ch3 F157A” value (USP30^ch3 F157A) is reported as 58.5 °C, the “Tm in presence of compound, USP30^ch3 F453Y” value (USP30^ch3 F453Y) is reported as 58.2 °C and the “Tm in presence of compound, USP30^ch2” value (USP30^ch2) is reported as 58.5 °C. The IC50 (USP30^c1) was 7.4 nM and 7.38 nM, the activity at 1.562 pM (USP30^c1; [2]) was 100% and the activity at 6.25 pM (USP30^c1; [2]) was 101%. For the same molecule, the activity at 25 pM (USP30^c1; [2]) was 98.2%, the activity at 0.0001 µM (USP30^c1; [2]) was 95.3% and the activity at 0.00039 µM (USP30^c1; [2]) was 89%. It also gave an activity at 0.00156 µM (USP30^c1; [2]) of 79.6%, an activity at 0.00625 µM (USP30^c1; [2]) of 53.6% and an activity at 0.025 µM (USP30^c1; [2]) of 27%. For the same molecule, the activity at 0.1 µM (USP30^c1; [2]) was 10.3%, the activity at 0.4 µM (USP30^c1; [2]) was 3.49% and the activity at 1.6 µM (USP30^c1; [2]) was 1.25%. The “Tm in presence of compound, USP30^ch4” value (USP30^ch4) was 59.2 °C, the “ΔTm, USP30^ch4” value (USP30^ch4; 20 µM) was 7.7 °C and 7.6 °C and 7.9 °C and the “probe labeling of wild-type Flag-USP30” value [1] was “abolished probe labeling”.
With CC(C)(C)NS(=O)(=O)c1ccc(NC(=O)[C@H](Cc2ccccc2)NC(=O)c2ccc(F)cc2)cc1 [compound 39] the “Tm in presence of compound, USP30^ch3 F157A” value (USP30^ch3 F157A) was 58.8 °C, the “Tm in presence of compound, USP30^ch3 F453Y” value (USP30^ch3 F453Y) was 58.5 °C and the “Tm in presence of compound, USP30^ch2” value (USP30^ch2) was 59.1 °C. For the same molecule, the IC50 (USP30^c1) was 0.8 nM and 0.834 nM, the USP30c1 activity (USP30^c1; inhibitor 0.0015625 nM) was 0.9588 and the USP30c1 activity (USP30^c1; inhibitor 0.00625 nM) was 0.9404. It also gave a USP30c1 activity (USP30^c1; inhibitor 0.025 nM) of 0.8662, a USP30c1 activity (USP30^c1; inhibitor 0.1 nM) of 0.7469 and a USP30c1 activity (USP30^c1; inhibitor 0.39 nM) of 0.5918. It also gave a USP30c1 activity (USP30^c1; inhibitor 1.56 nM) of 0.4353, a USP30c1 activity (USP30^c1; inhibitor 6.25 nM) of 0.2635 and a USP30c1 activity (USP30^c1; inhibitor 25 nM) of 0.1267. The USP30c1 activity (USP30^c1; inhibitor 100 nM) was 0.06264, the USP30c1 activity (USP30^c1; inhibitor 400 nM) was 0.02701 and the USP30c1 activity (USP30^c1; inhibitor 1600 nM) was 0.01055. The “Tm in presence of compound, USP30^ch4” value (USP30^ch4) was 60.3 °C, the “ΔTm, USP30^ch4” value (USP30^ch4; 20 µM) was 8.8 °C and the “ΔTm, USP30^ch4” value (USP30^ch4; listed as NK017, 20 µM) was 9.0 °C and 8.7 °C (2×). For the same molecule, the “probe labeling of wild-type Flag-USP30” value [1] was “abolished probe labeling”.
